Test results published in BindingDB's records for doi:10.1016/j.bmcl.2014.07.010 (Freie Universitaet Berlin, 2014).

Assay: Inhibition of influenza A virus (A/Perth/16/2009(H3N2)) neuraminidase using MUNANA substrate pre-incubated for 30 mins before substrate addition by fluorometric assay

Compared with `O=c1cc(-c2ccc(O)c(O)c2)oc2cc(O[C@@H]3O[C@H](CO)[C@@H](O)[C@H](O)[C@H]3O)cc(O)c12`, `O=c1cc(O)cc2oc(-c3ccc(O)c(O)c3)c(O[C@@H]3O[C@H](CO)[C@H](O)[C@H](O)[C@H]3O)c(O)c1-2` [2-(3,4-Dihydroxy-phenyl)-5,7-dihydroxy-3-((2S,4R,5R)-3,4,5-trihydroxy-6-hydroxymethyl-tetrahydro-pyran-2-yloxy)-chromen-4-one] is 1.7-fold higher in IC50: 51.2 µM for the first, 85.5 µM for the second.

Compared with `O=c1c(O)c(-c2ccc(O)cc2)oc2cc(O)cc(O)c12`, `C[C@@H]1O[C@@H](Oc2c(-c3ccc(O)c(O)c3)oc3cc(O)cc(O)c3c2=O)[C@H](O)[C@H](O)[C@H]1O` [CHEBI:17558] is 2.9-fold higher in IC50: 42.2 µM for the first, 121 µM for the second.

Work on `O=c1cc(O)cc2oc(-c3ccc(O)c(O)c3)c(O[C@@H]3O[C@H](CO)[C@@H](O)[C@H](O)[C@H]3O)c(O)c1-2` [Quercetin 3-O-beta-D-glucoside] yielded an IC50 of 477 µM.
